Where two headings read alike, the source gives them in different places.
Assays:
[1] = molecular target: T1, human type 1 5α-reductase (Homo sapiens, UniProt P18405); test: 5α-reductase in vitro inhibitory activity, human type 1
T1 sequence (P18405 1-259): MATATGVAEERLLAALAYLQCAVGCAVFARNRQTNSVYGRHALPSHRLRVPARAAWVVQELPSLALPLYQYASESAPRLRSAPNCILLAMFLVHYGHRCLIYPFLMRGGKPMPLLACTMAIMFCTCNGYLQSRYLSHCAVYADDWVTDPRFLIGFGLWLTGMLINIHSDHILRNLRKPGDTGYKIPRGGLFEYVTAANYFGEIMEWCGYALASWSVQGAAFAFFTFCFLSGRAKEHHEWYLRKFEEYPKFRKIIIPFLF
Protocol: (§1) Microsomes were prepared by homogenization of the tissue or cells, followed by differential centrifugation of the homogenate. […] Corresponding incubations were carried out with no test compound as a control study.
For type 2 IC50 measurements, assay components except testosterone were preincubated for 20 minutes at pH 6.0, and following the addition of 8nM testosterone the assays were allowed to proceed for 20-40 minutes. The percentage of conversion of testosterone to DHT in the presence of test compounds compared to the corresponding conversion in the control study was estimated using high pressure liquid chromatography (HPLC) with radiochemical detection.

[2] = molecular target: T2, human type 2 5α-reductase (Homo sapiens, UniProt P31213); test: 5α-reductase in vitro inhibitory activity, human type 2
T2 sequence (P31213 1-254): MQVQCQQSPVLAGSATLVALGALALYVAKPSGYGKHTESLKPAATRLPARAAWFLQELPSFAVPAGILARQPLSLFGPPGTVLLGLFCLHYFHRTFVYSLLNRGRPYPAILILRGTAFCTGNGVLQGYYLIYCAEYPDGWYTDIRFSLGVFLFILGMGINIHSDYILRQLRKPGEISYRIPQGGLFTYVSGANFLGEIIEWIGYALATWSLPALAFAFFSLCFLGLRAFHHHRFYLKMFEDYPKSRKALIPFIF
Protocol: as §1
(§2) The percentage of conversion of testosterone to DHT in the presence of test compounds compared to the corresponding conversion in the control study was estimated using high pressure liquid chromatography (HPLC) with radiochemical detection.

[3] = molecular target: Rat Prostatic 5α-reductase; test: 5α-reductase in vitro inhibitory activity, rat prostatic; settings: read-out: IC50 Rat Prostatic; microsomes derived from prostate tissue from the rat
Protocol: as §1, §2

[4] = read-out: IC50 Human Type 1, microsomes of recombinant baculovirus infected SF9 cells, preincubated 10 minutes at pH 7.0, 100nM testosterone, 1 mM NADPH
[5] = read-out: IC50 Human Type 2, microsomes, preincubated 20 minutes at pH 6.0, 8nM testosterone, 1 mM NADPH

| IC50 [3] | IC50 [1] | IC50 [2] | Compound | IC50 [1, 4] | IC50 [2, 5] |
| --- | --- | --- | --- | --- | --- |
| > 100 nM | > 100 nM | < 10 nM | C[C@]12CC[C@H]3[C@@H](CNC4=CC(=O)CC[C@@]43C)[C@@H]1CC[C@@H]2C(=O)Nc1ccc2c(c1)CCC2 [Compound 4, 17β-N-5-Indanylcarbamoyl-6-azaandrost-4-en-3-one] |  |  |
| 10 to 100 nM | > 100 nM | 10 to 100 nM | CC12CCC(=O)C=C1NCC1C2CCC2(C)C(C(=O)Nc3ccc(N4CCOCC4)cc3)CCC12 (stereo not drawn) [Compound 5, 17β-N-Phenyl-(4-morpholino)-carbamoyl-6-azaandrost-4-en-3-one] |  |  |
| 10 to 100 nM | < 10 nM | < 10 nM | CC(C)(C)c1ccc(C(C)(C)C)c(NC(=O)C2CCC3C4CNC5=CC(=O)CCC5(C)C4CCC23C)c1 (stereo not drawn) [Compound 10, 17β-N-(2,5-Di-t-butyl)phenyl-carbamoyl-6-azaandrost-4-en-3-one] |  |  |
| < 10 nM | 10 to 100 nM | < 10 nM | Cc1ccc(CCNC(=O)C2CCC3C4CNC5=CC(=O)CCC5(C)C4CCC23C)cc1 (stereo not drawn) [Compound 12, 17β-N-(4-Methyl)phenethyl-carbamoyl-6-azaandrost-4-en-3-one] |  |  |
| > 100 nM | > 100 nM | 10 to 100 nM | CC(C)(CO)NC(=O)[C@H]1CC[C@H]2[C@@H]3CNC4=CC(=O)CC[C@]4(C)[C@H]3CC[C@]12C [Compound 21, 17β-N-(1,1-Dimethyl)-2-hydroxyethyl-carbamoyl-6-azaandrost-4-en-3-one] |  |  |
|  | > 100 nM | < 10 nM | CC(C)(C)NC(=O)c1ccc(C(F)(F)F)cc1NC(=O)[C@H]1CC[C@H]2[C@@H]3CNC4=CC(=O)CC[C@]4(C)[C@H]3CC[C@]12C [Compound 142, 17β-N-(2-t-Butylcarbamoyl-5-trifluoromethyl)phenyl-carbamoyl-6-azaandrost-4-en-3-one] |  |  |
|  | < 10 nM | < 10 nM | CC(C)(C)c1ccc(C2(NC(=O)[C@H]3CC[C@H]4[C@@H]5CNC6=CC(=O)CC[C@]6(C)[C@H]5CC[C@]34C)CCSCC2)cc1 [Compound 143, 17β-N-4-(4-t-Butylphenyl)tetrahydrothiopyranyl-carbamoyl-6-azaandrost-4-en-3-one] |  |  |
|  | < 10 nM | < 10 nM | CC(C)(C)c1ccc(C2(NC(=O)[C@H]3CC[C@H]4[C@@H]5CNC6=CC(=O)CC[C@]6(C)[C@H]5CC[C@]34C)C3CCCC2CCC3)cc1 (stereo partly drawn) [Compound 144, 17β-N-9-(4-t-Butylphenyl)bicyclo[3.3.1]nonyl-carbamoyl-6-azaandrost-4-en-3-one] |  |  |
|  | < 10 nM | < 10 nM | CC(C)(C)c1ccc(C2(NC(=O)[C@H]3CC[C@H]4[C@@H]5CNC6=CC(=O)CC[C@]6(C)[C@H]5CC[C@]34C)CCOCC2)cc1 [Compound 145, 17β-N-4-(4-t-Butylphenyl)tetrahydropyranyl-carbamoyl-6-azaandrost-4-en-3-one] |  |  |
|  | < 10 nM | < 10 nM | C[C@]12CC[C@H]3[C@@H](CNC4=CC(=O)CC[C@@]43C)[C@@H]1CC[C@@H]2C(=O)NC1(c2ccc(Cl)cc2)CCCCC1 [Compound 146, 17β-N-1-(4-Chlorophenyl)cyclohexyl-carbamoyl-6-azaandrost-4-en-3-one] |  |  |
|  | < 10 nM | < 10 nM | CC(C)(C)c1ccc(-c2ccc(C(C)(C)C)c(NC(=O)[C@H]3CC[C@H]4[C@@H]5CNC6=CC(=O)CC[C@]6(C)[C@H]5CC[C@]34C)c2)cc1 [Compound 147, 17β-N-(2-t-Butyl-5-(4-t-butyl)phenyl)phenyl-carbamoyl-6-azaandrost-4-en-3-one] |  |  |

The remaining lines, values behind:

| Compound | IC50 [3] | IC50 [1] | IC50 [2] | IC50 [1, 4] | IC50 [2, 5] |
| --- | --- | --- | --- | --- | --- |
| 17β-N-2-(3-N-Methylpyrrole)ethyl-carbamoyl-6-azaandrost-4-en-3-one [Compound 29] | 10 to 100 nM |  |  | > 100 nM | 10 to 100 nM |
| 17β-N-(2-t-Butyl-5-(N-methyl)methylsulfonamide)phenyl-6-azaandrost-4-en-3-one [Compound 91] | 10 to 100 nM |  |  | 10 to 100 nM | < 10 nM |
| C[C@]12CC[C@H]3[C@@H](CNC4=CC(=O)CC[C@@]43C)[C@@H]1CC[C@@H]2C(=O)NC1c2ccccc2-c2ccccc21 [Compound 1, 17β-N-9-Fluorenyl-carbamoyl-6-azaandrost-4-en-3-one] | 10 to 100 nM | > 100 nM | < 10 nM |  |  |
| C[C@]12CC[C@H]3[C@@H](CNC4=CC(=O)CC[C@@]43C)[C@@H]1CC[C@@H]2C(=O)CC1CCCCC1 [Compound 2, 17β-(1-Oxo-2-cyclohexylethyl)-6-azaandrost-4-en-3-one] | < 10 nM | < 10 nM | < 10 nM |  |  |
| CC(C)(C)C(=O)OCC1CCC2C3CNC4=CC(=O)CCC4(C)C3CCC12C (stereo not drawn) [Compound 3, 17β-Hydroxymethyl-(trimethylacetate)-6-azaandrost-4-en-3-one] | < 10 nM | 10 to 100 nM | 10 to 100 nM |  |  |
| C[C@]12CC[C@H]3[C@@H](CNC4=CC(=O)CC[C@@]43C)[C@@H]1CC[C@@H]2C(=O)Nc1ccc2c(c1)OCCO2 [Compound 6, 17β-N-4-Benzodioxan-carbamoyl-6-azaandrost-4-en-3-one] | 10 to 100 nM |  |  | > 100 nM | 10 to 100 nM |
| CC12CCC(=O)C=C1NCC1C2CCC2(C)C(C(=O)Nc3ccc4c(c3)OCO4)CCC12 (stereo not drawn) [Compound 7, 17β-N-(3,4-Methylenedioxy)phenyl-carbamoyl-6-azaandrost-4-en-3-one] | 10 to 100 nM | > 100 nM | < 10 nM |  |  |
| CC12CCC(=O)C=C1NCC1C2CCC2(C)C(C(=O)Nc3ccccc3C(F)(F)F)CCC12 (stereo not drawn) [Compound 9, 17β-N-(2-Trifluoromethyl)phenyl-carbamoyl-6-azaandrost-4-en-3-one] | < 10 nM | 10 to 100 nM | < 10 nM |  |  |
| CC12CCC(=O)C=C1NCC1C2CCC2(C)C(C(=O)NC(c3ccccc3)c3ccc(Cl)cc3)CCC12 (stereo not drawn) [Compound 11, 17β-N-(4-Chlorophenyl)(phenyl)methyl-carbamoyl-6-azaandrost-4-en-3-one] | < 10 nM | 10 to 100 nM | < 10 nM |  |  |
| CC(Cc1ccccc1)NC(=O)C1CCC2C3CNC4=CC(=O)CCC4(C)C3CCC12C (stereo not drawn) [Compound 13, 17β-N-(α-Methyl)phenethyl-carbamoyl-6-azaandrost-4-en-3-one] | < 10 nM | 10 to 100 nM | < 10 nM |  |  |
| CC(C)c1cccc(C(C)C)c1NC(=O)[C@H]1CC[C@H]2[C@@H]3CNC4=CC(=O)CC[C@]4(C)[C@H]3CC[C@]12C [Compound 14, 17β-N-(2,6-Di-i-propyl)phenyl-carbamoyl-6-azaandrost-4-en-3-one] | < 10 nM | 10 to 100 nM | < 10 nM |  |  |
| C[C@]12CC[C@H]3[C@@H](CNC4=CC(=O)CC[C@@]43C)[C@@H]1CC[C@@H]2C(=O)Nc1cccc2c1Cc1ccccc1-2 [Compound 15, 17β-N-1-Fluorenyl-carbamoyl-6-azaandrost-4-en-3-one] | < 10 nM | > 100 nM | < 10 nM |  |  |
| C[C@]12CC[C@H]3[C@@H](CNC4=CC(=O)CC[C@@]43C)[C@@H]1CC[C@@H]2C(=O)NCCC(c1ccccc1)c1ccccc1 [Compound 16, 17β-N-(3,3-Diphenyl)propyl-carbamoyl-6-azaandrost-4-en-3-one] | < 10 nM | 10 to 100 nM | < 10 nM |  |  |
| C[C@]12CC[C@H]3[C@@H](CNC4=CC(=O)CC[C@@]43C)[C@@H]1CC[C@@H]2C(=O)NC(Cc1ccccc1)c1ccccc1 (stereo partly drawn) [Compound 17, 17β-N-(α-Phenyl)phenethyl-carbamoyl-6-azaandrost-4-en-3-one] | < 10 nM | 10 to 100 nM | < 10 nM |  |  |
| C[C@]12CC[C@H]3[C@@H](CNC4=CC(=O)CC[C@@]43C)[C@@H]1CC[C@@H]2C(=O)NC(c1ccc(F)cc1)c1cccs1 (stereo partly drawn) [Compound 18, 17β-N-(4-Fluorophenyl)(2-thiophene)methyl-carbamoyl-6-azaandrost-4-en-3-one] | < 10 nM | 10 to 100 nM | < 10 nM |  |  |
| C[C@]12CC[C@H]3[C@@H](CNC4=CC(=O)CC[C@@]43C)[C@@H]1CC[C@@H]2C(=O)NCc1ccco1 [Compound 19, 17β-N-(2-Furanyl)methyl-carbamoyl-6-azaandrost-4-en-3-one] | 10 to 100 nM | > 100 nM | 10 to 100 nM |  |  |
| C[C@]12CC[C@H]3[C@@H](CNC4=CC(=O)CC[C@@]43C)[C@@H]1CC[C@@H]2C(=O)NCCc1ccccn1 [Compound 20, 17β-N-2-(2-Pyridyl)ethyl-carbamoyl-6-azaandrost-4-en-3-one] | 10 to 100 nM | > 100 nM | 10 to 100 nM |  |  |
| C[C@]12CC[C@H]3[C@@H](CNC4=CC(=O)CC[C@@]43C)[C@@H]1CC[C@@H]2C(=O)NCC(c1ccccc1)c1ccccc1 [Compound 22, 17β-N-(2,2-Diphenyl)ethyl-carbamoyl-6-azaandrost-4-en-3-one] | < 10 nM | 10 to 100 nM | < 10 nM |  |  |
| C[C@]12CC[C@H]3[C@@H](CNC4=CC(=O)CC[C@@]43C)[C@@H]1CC[C@@H]2C(=O)NN(c1ccccc1)c1ccccc1 [Compound 25, 17β-N-(2,2-Diphenyl)-hydrazidyl-6-azaandrost-4-en-3-one] | < 10 nM | 10 to 100 nM | < 10 nM |  |  |

Reference: EP0674651B1, “SUBSTITUTED 6-AZAANDROSTENONES” (priority 1992, dated 1994)
